Results reported in US20110166126A1, “Compositions and Methods for Modulating Endophthalmitis Using Fluoroquinolones” (priority 2007, published 2011).
≈ marks a conversion by molar mass, not a printed value. Entries after “also recorded” stand apart in the source; their conditions may differ. One block for each compound: values may come before it.

How the values were obtained:
[1] = test system: LPS-stimulated cytokine production in human THP-1 monocytes; test: Inhibition of LPS-induced cytokine expression in human THP-1 monocytes (multiplex Luminex); type: cell-based; design: key to Inhibition of LPS-stimulated G-CSF production / Inhibition of LPS-stimulated GM-CSF production / Inhibition of LPS-stimulated IL-12p40 production / Inhibition of LPS-stimulated IL-1α production / Inhibition of LPS-stimulated IL-1β production / Inhibition of LPS-stimulated IL-1ra production / Inhibition of LPS-stimulated IL-6 production / Inhibition of LPS-stimulated IL-8 production / Inhibition of LPS-stimulated IP-10 production / Inhibition of LPS-stimulated MCP-1 production / Inhibition of LPS-stimulated MIP-1α production / Inhibition of LPS-stimulated VEGF production: “X” signifies significant inhibition at a particular concentration
Procedure: Human THP-1 monocytes (ATCC TIB 202) were purchased from American Type Culture Collection (Manassas, Va.) and maintained in RPMI 1640 medium (Invitrogen, Carlsbad, Calif.) supplemented with 10% fetal bovine serum (“FBS”, Invitrogen, Carlsbad, Calif.), 100 U/mL of penicillin (Invitrogen, Carlsbad, Calif.), and 100 μg/mL of streptomycin (Invitrogen, Carlsbad, Calif.) at 37° C. in a humidified incubator with 5% CO2. THP-1 cells were pre-cultured in RPMI 1640 medium containing 10% dialyzed serum for 24 h. […] Each treatment was performed in triplicate.
Samples were analyzed using multiplex bead technology, which utilizes microspheres as the solid support for immunoassays and allows the analysis of all cytokines from each sample (D. A. Vignali, J. Immunol. Methods, Vol. 243, 243-255 (2000)). Sixteen cytokines were measured according to the manufacturer's instructions. Briefly, 50 μl, of medium samples were incubated with antibody-coated capture beads overnight at 4° C. Washed beads were further incubated with biotin-labeled anti-human cytokine antibodies for 2 hours at room temperature followed by incubation with streptavidin-phycoerythrin for 30 min. Samples were analyzed using Luminex 200™ (Luminex, Austin, Tex.) and Beadview software v1.0 (Upstate Cell Signaling Solutions, Temecula, Calif.). Standard curves of known concentrations of recombinant human cytokines were used to convert fluorescence units (median fluorescence intensity) to cytokine concentration in pg/mL. Only the linear portions of the standard curves were used to quantify cytokine concentrations, and in instances where the fluorescence reading exceeded the linear range of the standard curve, an appropriate dilution was performed to ensure that the concentration was in the linear portion of the curve.
All cytokine concentrations (pg/mL) were expressed as mean±standard deviation. Statistical analysis comparing effects of treatment across groups was performed using a one-way ANOVA with a Dunnett's post-hoc comparison test using either vehicle control or LPS treatment as references. For all assays, p≦0.05 was predetermined as the criterion of statistical significance.

[2] = test system: IL-1β induced IL-8 release in THP-1 monocytes; test: Effect on IL-1β-induced cytokine (IL-8) release from human THP-1 monocytes (Luminex); type: cell-based; conditions: for Effect on IL-1β induced IL-8 release / IC50: 18 h; for IC50: Homo sapiens, THP-1, 30 ng/mL IL-1β, four-parameter logistic fit, read-out: IC50 for inhibition of IL-1β induced IL-8 release
Procedure: Each treatment was performed in triplicate. Media was collected by centrifugation and used for determination of cytokine content using a cytokine Luminex kit. The alamarBlue assay was performed to evaluate cell viability.
After determining the optimal concentration of IL-1β to induce cytokine release (30 ng/mL), cells were pre-cultured in RPMI-1640 medium containing 10% dialyzed FBS in a T-75 flask. […] Each treatment was performed in triplicate. Media were collected and used for determination of cytokine content using a cytokine Luminex kit. AlamarBlue assay was performed to evaluate the cell viability.
(§1) Luminex: Median fluorescence intensity (MFI) was used to obtain the concentration of each cytokines in pg/ml based on the standard curve of each cytokine assayed by Luminex. The linear range of the standard curve for each cytokine was used for determination of cytokine concentration.
To determine inhibition of IL-1β-induced cytokine release into the medium by dexamethasone or fluoroquinolone compounds as well cell viability, statistical analysis was performed using one-way ANOVA-Dunnett's test on raw data, and P<0.05 was considered statistically significant.
A concentration vs. effect curve was plotted for experiment 2, using averaged data from selected samples. […] Data were fitted to a re-parameterized four-parameter logistic equation using similar methodology as that previously described, and utilizing the statistical analysis software JMP8.

[3] = test system: LPS-stimulated cytokine production in human THP-1 monocytes; conditions: earlier study [8] (PH07025); better potency compared to moxifloxacin; cited from earlier work
[4] = test system: primary human corneal epithelial cells (HCEpiC); conditions: earlier study (PH07038); comparable or better potency compared to moxifloxacin; cited from earlier work
THP-1 monocytes = test: IL-1β and LPS induced IL-8 release from THP-1 monocytes (experiment 1); type: cell-based, Human; conditions: 300, 100, 60, 30 and 10 ng/mL, 18 h
Procedure: Human monocytic (THP-1) cells were pre-cultured in basal RPMI-1640 medium (commercially available, for example, from Sigma Aldrich) containing 10% dialyzed FBS in a T-75 flask. After 24 h, cells were seeded in 48-well plates in RPMI-1640 medium containing 2% dialyzed FBS at a density of 5.0×10^5 cells/mL with vehicle, IL-1β (300, 100, 60, 30 and 10 ng/mL) and LPS (1 μg/mL) for 18 h (Table 3-1). Each treatment was performed in triplicate. Media were collected and used for determination of cytokine content using a cytokine Luminex kit. The alamarBlue assay was performed to evaluate the cell viability.
as §1
Data was expressed as mean±SD. To determine induction of cytokine release into the medium by IL-1β or LPS, statistical analysis was performed using one-way ANOVA-Dunnett's test, and P<0.05 was considered statistically significant.

[5] = 1 μg/mL, 10 μg/mL LPS, 18 hours
[6] = 10 μg/mL, 10 μg/mL LPS, 18 hours
[7] = 30 μg/mL, 10 μg/mL LPS, 18 hours
[8] = LPS-induced cytokine production, THP-1 monocytes

IC50 [2]: 7.5 µg/mL (≈ 19 µM)
Compound: N[C@@H]1CCCCN(c2c(F)cc3c(=O)c(C(=O)O)cn(C4CC4)c3c2Cl)C1 [BOL-303224-A, besifloxacin]
Inhibition of LPS-stimulated IL-1α production ([1]; 0.1 μg/mL, 10 μg/mL LPS, 18 hours): X
Inhibition of LPS-stimulated G-CSF production [1, 5]: X
Inhibition of LPS-stimulated IL-1ra production [1, 5]: X
Inhibition of LPS-stimulated IL-1α production [1, 5]: X
Inhibition of LPS-stimulated IL-6 production [1, 5]: X
Inhibition of LPS-stimulated G-CSF production [1, 6]: X
Inhibition of LPS-stimulated IL-1ra production [1, 6]: X
Inhibition of LPS-stimulated IL-1α production [1, 6]: X
Inhibition of LPS-stimulated IL-6 production [1, 6]: X
Inhibition of LPS-stimulated VEGF production [1, 6]: X
Inhibition of LPS-stimulated G-CSF production [1, 7]: X
Inhibition of LPS-stimulated GM-CSF production [1, 7]: X
Inhibition of LPS-stimulated IL-1ra production [1, 7]: X
Inhibition of LPS-stimulated IL-1α production [1, 7]: X
Inhibition of LPS-stimulated IL-1β production [1, 7]: X
Inhibition of LPS-stimulated IL-6 production [1, 7]: X
Inhibition of LPS-stimulated IL-8 production [1, 7]: X
Inhibition of LPS-stimulated IL-12p40 production [1, 7]: X
Inhibition of LPS-stimulated IP-10 production [1, 7]: X
Inhibition of LPS-stimulated MCP-1 production [1, 7]: X
Inhibition of LPS-stimulated MIP-1α production [1, 7]: X
Inhibition of LPS-stimulated VEGF production [1, 7]: X
Effect on LPS-stimulated production of RANTES ([1]; 0.1-30 μg/mL, THP-1 monocytes): Neither moxifloxacin nor compound having Formula IV altered
Effect on LPS-stimulated production of fractalkine ([1]; 0.1-30 μg/mL, THP-1 monocytes): Neither moxifloxacin nor compound having Formula IV altered
Effects on GM-CSF, IL-1β, IL-8, IP-10, MCP-1, and MIP-1α after LPS stimulation (comparison of the two fluoroquinolones) ([1]; FIG. 1): comparable effects
Relative potency on G-CSF, IL-1α, IL-1ra, IL-6, and VEGF ([1]; FIG. 2, LPS-stimulated THP-1 monocytes): better potency than moxifloxacin
Concentration at which a significant inhibitory effect was observed for G-CSF [1, 8]: 1 µg/mL
Concentration at which a significant inhibitory effect was observed for GM-CSF [1, 8]: 30 µg/mL
Concentration at which a significant inhibitory effect was observed for IL-1α [1, 8]: 0.1 µg/mL
Concentration at which a significant inhibitory effect was observed for IL-1β [1, 8]: 30 µg/mL
Concentration at which a significant inhibitory effect was observed for IL-6 [1, 8]: 1 µg/mL
Concentration at which a significant inhibitory effect was observed for IL-8 [1, 8]: 30 µg/mL
Concentration at which a significant inhibitory effect was observed for IL-12p40 [1, 8]: 30 µg/mL
Concentration at which a significant inhibitory effect was observed for IP-10 [1, 8]: 30 µg/mL
Concentration at which a significant inhibitory effect was observed for MCP-1 [1, 8]: 30 µg/mL
Concentration at which a significant inhibitory effect was observed for MIP-1α [1, 8]: 30 µg/mL
Concentration as low as which a significant inhibitory effect was seen on IL-1α ([1]; LPS-stimulated THP-1 monocytes): 100 ng/mL
Concentration at which a significant inhibitory effect was seen on G-CSF ([1]; LPS-stimulated THP-1 monocytes): 1000 ng/mL
Concentration at which a significant inhibitory effect was seen on IL-1ra ([1]; LPS-stimulated THP-1 monocytes): 1000 ng/mL
Concentration at which a significant inhibitory effect was seen on IL-6 ([1]; LPS-stimulated THP-1 monocytes): 1000 ng/mL
Effect on IL-1β induced IL-8 release ([2]; 10 μg/mL): significantly reduced; also recorded: diminished
Effect on IL-1β induced IL-8 release ([2]; 30 μg/mL and 10 μg/mL): significantly reduced
Concentration needed to reduce IL-1β-induced IL-8 release relative to moxifloxacin ([2]; THP-1 cells): at a lower concentration than moxifloxacin
Effect on lipopolysaccharide (LPS)-stimulated cytokine expression in THP-1 human monocytes [3]: significantly inhibited
Effect on IL-1β-stimulated cytokine expression in HCEpiC [4]: significantly inhibited

IC50 [2]: 10.9 ± 4.8 µg/mL (≈ 27.2 µM)
Compound: COc1c(N2C[C@@H]3CCCN[C@@H]3C2)c(F)cc2c(=O)c(C(=O)O)cn(C3CC3)c12 [Moxifloxacin, moxifloxacin, reference compound]
Inhibition of LPS-stimulated IL-12p40 production [1, 5]: X
Inhibition of LPS-stimulated IL-1ra production [1, 6]: X
Inhibition of LPS-stimulated IL-6 production [1, 6]: X
Inhibition of LPS-stimulated IL-12p40 production [1, 6]: X
Inhibition of LPS-stimulated IL-1ra production [1, 7]: X
Inhibition of LPS-stimulated IL-1α production [1, 7]: X
Inhibition of LPS-stimulated IL-1β production [1, 7]: X
Inhibition of LPS-stimulated IL-8 production [1, 7]: X
Inhibition of LPS-stimulated IL-12p40 production [1, 7]: X
Inhibition of LPS-stimulated IP-10 production [1, 7]: X
Inhibition of LPS-stimulated MIP-1α production [1, 7]: X
Inhibition of LPS-stimulated VEGF production [1, 7]: X
Concentration at which a significant inhibitory effect was observed for IL-1ra [1, 8]: 10 µg/mL
Concentration at which a significant inhibitory effect was observed for IL-1α [1, 8]: 30 µg/mL
Concentration at which a significant inhibitory effect was observed for IL-1β [1, 8]: 30 µg/mL
Concentration at which a significant inhibitory effect was observed for IL-6 [1, 8]: 10 µg/mL
Concentration at which a significant inhibitory effect was observed for IL-8 [1, 8]: 30 µg/mL
Concentration at which a significant inhibitory effect was observed for IL-12p40 [1, 8]: 1 µg/mL
Concentration at which a significant inhibitory effect was observed for IP-10 [1, 8]: 30 µg/mL
Concentration at which a significant inhibitory effect was observed for MIP-1α [1, 8]: 30 µg/mL

Compound: IL-1β: interleukin-1β, used to induce cytokine release in THP-1 cells
Stimulation of IL-8 release (THP-1 monocytes): stimulated
